# Read-outs that look alike come from different tables or passages of the source.
# Key:
# [1] = Unbound fraction by equilibrium dialysis, medium containing 10% fetal bovine serum; type: in vitro ADME; details: 1 μM, equilibrium dialysis 37 °C 4 h
# Description: An equilibrium dialysis apparatus, Rapid Equilibrium Dialysis (RED) Device Single-Use Plate with Inserts, 8K MWCO (ThermoFisher Scientific, Waltham, MA, USA), was used to determine the unbound fraction for each compound in human plasma, rat plasma, and medium containing 10% fetal bovine serum (FBS). Plasma or medium was mixed with the test compound (1 μM) and 200 μL aliquots were loaded into the apparatus and dialyzed versus 350 μL of 100 mM phosphate buffer (pH 7.4) at 37 °C for 4 h by rotation at 1000 rpm. The unbound fraction was calculated as the ratio of receiver side (buffer) to donor side (plasma) concentrations.
# [2] = test system: chick retinal pigment epithelial cells; design: method as in PMID 18414992; details: 6.6 × 10^−5, 6.6 × 10^−6 and 6.6 × 10^−7 M, 4 h, dark or light 320 lux; cited from earlier work
# [3] = In vivo pharmacokinetics, intravenous administration; design: species or system rat
# Description: Male Sprague Dawley (SD) and Wistar rats (5-week old) were obtained from Charles River Laboratories Japan (Yokohama, Japan) and Japan SLC, Inc. (Hamamatsu, Japan), respectively. All animals were maintained in air-conditioned quarters with room temperatures of 20 ± 2 °C, relative humidity of 50 ± 10%, and an alternating 12 h light/dark cycle. The rats were fed a certified diet MF (Oriental Yeast Co., Tokyo, Japan) and water ad libitum. The studies were conducted in accordance with the guidelines provided by the Animal Care and Use Committee of Osaka University (Identifier DouyakuR01-3-1).
# A test compound (NK-5962) solution in 50% DMSO/water was injected intravenously (i.v.) to male SD rats. A test compound suspension in 0.5% methyl cellulose was administered orally (p.o.) to male Wistar rats. The dosage of the test compound was 1 mg/2 mL/kg (i.v.) and 10 or 100 mg/10 mL/kg (p.o.). Blood samples were collected from the jugular vein at 5 and 15 min and 1 h (i.v.) by using pre-heparinized syringe after the intravenous administration or from the caudal vein at 15 and 30 min, 1, 2 and 4 h (p.o.) by using heparinized capillary tube after the oral administration. At 30 min and 2 h (i.v.) or 8 h (p.o.), blood samples were collected from the abdominal aorta under isoflurane anesthesia and the eye balls and the whole brain were excised immediately.
# Plasma was prepared by centrifugation of the blood samples. Plasma and tissues were stored at −80 °C. The tissues were homogenized with a four-fold volume of phosphate-buffered saline to obtain a 20% tissue homogenate. Plasma and 20% tissue homogenates were precipitated with 4–20 volumes of acetonitrile/IS and centrifuged at 15,000× g at 4 °C for 10 min. The supernatants were analyzed by liquid chromatography and tandem mass spectrometry (LC-MS/MS). Standard non-compartmental analysis was performed to determine the pharmacokinetic parameters: elimination half-life (t1/2) and area under the concentration time curve from time zero to infinity (AUC∞). The absolute bioavailability (BA) of the oral dose was calculated as AUC∞ (p.o.)/AUC∞ (i.v.).
# Liquid chromatography and tandem mass spectrometry instrument (LC-MS8060) equipped with Shimadzu Nexera series LC system (Shimadzu, Kyoto, Japan) were used. All compounds were analyzed in multi-reaction monitoring mode under electron spray ionization conditions. The analytical column used was a […] C18 MGIII (3 μm × 2.0 mmID × 35 mm; OSAKA SODA, Osaka, Japan) at 50 °C. The gradient mobile phase consisted of 0.1% formic acid in water (mobile phase A) and 0.1% formic acid in acetonitrile (mobile phase B) at a total flow rate of 1 mL/minute. The initial mobile phase composition was 10% B, which was held constant for 0.2 min, increased in a linear fashion to 90% B over 1 min, then held constant for 0.8 min, and then finally brought back to the initial condition of 10% B over 0.01 min and re-equilibrated for 1 min. The transitions (precursor ion > product ion) of NK-5962 and IS (methyl testosterone) are 433.2 > 279.2 and 303.1 > 109.1 (positive), respectively.
# [4] = intravenous 1 mg/kg, 0.5 h, single rat, 1 mg/kg
# [5] = intravenous 1 mg/kg, 2 h, single rat, 1 mg/kg
smiles,measurement,setting,value
"CCCCN(CCCC)c1ccc(C=Cc2sc3ccccc3[n+]2CC(=O)O)cc1.[Br-] [NK-5962, 2-[2-[4-(dibutylamino)phenyl]ethenyl]-3-carboxymethylbenzothiazolium bromide]",Protein-Binding (Non-Binding Ratio) 10% Fetal Bovine Serum,[1],0.34
same,percent cytotoxicity value,[2],negative in all groups
same,Plasma Concentration,"[3]; intravenous 1 mg/kg, 0.083 h, single rat, 1 mg/kg",648 nM
same,Plasma Concentration,"[3]; intravenous 1 mg/kg, 0.25 h, single rat, 1 mg/kg",342 nM
same,Eye Ball/ Plasma Ratio,[3]; [4],0.045
same,Plasma Concentration,[3]; [4],569 nM
same,concentration at 2 h,"[3]; intravenous 1 mg/kg, 0.5 h, single rat, 1 mg/kg, read-out: Eye Ball Concentration",25.5 nM
same,Plasma Concentration,"[3]; intravenous 1 mg/kg, 1 h, single rat, 1 mg/kg",34.6 nM
same,Eye Ball/ Plasma Ratio,[3]; [5],0.16
same,Plasma Concentration,[3]; [5],22.0 nM
same,concentration at 2 h,"[3]; intravenous 1 mg/kg, 2 h, single rat, 1 mg/kg, read-out: Eye Ball Concentration",3.42 nM
same,Kp at 0.5 h,"[3]; male, Sprague Dawley, rat, eye ball / plasma, iv, 1 mg/kg, intravenous 1 mg/kg, 0.5 h, single rat, read-out: Eye Ball/ Plasma Ratio",0.052
same,Kp at 2 h,"[3]; male, Sprague Dawley, rat, eye ball / plasma, iv, 1 mg/kg, intravenous 1 mg/kg, 2 h, single rat, read-out: Eye Ball/ Plasma Ratio",0.17
same,concentration at 0.5 h,"[3]; male, Sprague Dawley, rat, eye ball, iv, 1 mg/kg, intravenous 1 mg/kg, 0.5 h (30 min), read-out: Mean Eye Ball Concentration",29.8 nM
same,concentration at 0.5 h,"[3]; male, Sprague Dawley, rat, eye ball, iv, 1 mg/kg, intravenous 1 mg/kg, 0.5 h, single rat, read-out: Eye Ball Concentration",34.1 nM
same,concentration at 2 h,"[3]; male, Sprague Dawley, rat, eye ball, iv, 1 mg/kg, intravenous 1 mg/kg, 2 h, single rat, read-out: Eye Ball Concentration",4.16 nM
same,concentration at 2 h,"[3]; male, Sprague Dawley, rat, eye ball, iv, 1 mg/kg, intravenous 1 mg/kg, 2 h, read-out: Mean Eye Ball Concentration",3.79 nM
same,concentration at 0.083 h,"[3]; male, Sprague Dawley, rat, plasma, iv, 1 mg/kg, intravenous 1 mg/kg, 0.083 h, single rat",779 nM
same,concentration at 0.25 h,"[3]; male, Sprague Dawley, rat, plasma, iv, 1 mg/kg, intravenous 1 mg/kg, 0.25 h, single rat",511 nM
same,concentration at 0.5 h,"[3]; male, Sprague Dawley, rat, plasma, iv, 1 mg/kg, intravenous 1 mg/kg, 0.5 h, single rat, read-out: Plasma Concentration",661 nM
same,concentration at 1 h,"[3]; male, Sprague Dawley, rat, plasma, iv, 1 mg/kg, intravenous 1 mg/kg, 1 h, single rat",49.9 nM
same,concentration at 2 h,"[3]; male, Sprague Dawley, rat, plasma, iv, 1 mg/kg, intravenous 1 mg/kg, 2 h, single rat, read-out: Plasma Concentration",24.3 nM
same,half-life,"[3]; male, Sprague Dawley, rat, plasma, intravenous 1 mg/kg body weight, rats",21 min
